According to patent US9707269B2, “Sugar compositions for treating hemophilia A and/or von Willebrand disease” (CSL Behring GmbH, priority 2012, dated 2017):
Entries after “also recorded” stand apart in the source; their conditions may differ.

What was measured:
[1] = system: clearance receptor candidates; experiment: Interaction of pd VWF multimers with clearance receptor candidates and its inhibition (Example 10); assay type: binding; details: example without data; for inhibition of binding of pd VWF multimers to clearance receptor candidates: in the presence of ASF or monosaccharides
Source text: According to Example 9, pd VWF multimers interact with clearance receptor candidates mentioned earlier. In addition, binding is inhibited in the presence of ASF or monosaccharides such as galactose, fucose and N-acetylgalactosamine.

clearance receptors = experiment: Inhibition of pd VWF monomer interaction with clearance receptors by monosaccharides (Example 8); assay type: binding; details: in the presence of monosaccharides; example without data
Source text: According to example 7, the interaction of pd VWF monomers with clearance receptors mentioned earlier is inhibited in the in the presence of monosaccharides such as galactose, fucose and N-acetylgalactosamine.

rhASGPR [2] = target: T1, rhASGPR (Homo sapiens, UniProt P07306); experiment: SPR inhibition of ASF binding to rhASGPR by monosaccharides; details: in the presence of the monosaccharide, FIG. 11
T1 construct: The extracellular domains of receptor proteins were acquired from R&D Systems (Wiesbaden, Germany); purchased R&D Systems (Wiesbaden, Germany)
T1 sequence (P07306 62-291 limits assumed): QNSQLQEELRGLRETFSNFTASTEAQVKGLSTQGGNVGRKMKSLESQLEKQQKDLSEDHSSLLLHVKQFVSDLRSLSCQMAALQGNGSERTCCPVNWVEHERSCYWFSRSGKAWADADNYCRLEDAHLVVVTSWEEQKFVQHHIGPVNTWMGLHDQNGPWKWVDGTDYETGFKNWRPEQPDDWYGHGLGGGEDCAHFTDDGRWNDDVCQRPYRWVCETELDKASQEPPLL
Procedure: (§1) SPR technology (Biacore T200, GE Healthcare Biosciences, Uppsala, Sweden) was applied to evaluate mechanisms of realtime biomolecular interactions between VWF, receptor-blocking agents and clearance receptor candidates. The interaction experiments were performed at a flow cell temperature of +25° C. by applying running buffer containing 10 mM HEPES, 150 mM NaCl, 5 mM CaCl2 and 0.05% Tween-20 at pH 7.4, which was also used as sample dilution buffer. Reagents and buffer stock solutions were purchased from GE Healthcare Biosciences (Uppsala, Sweden). The extracellular domains of receptor proteins were acquired from R&D Systems (Wiesbaden, Germany). The ligands were captured on Series S Sensor […] pretreated according to the manufacturer's instructions. The receptor proteins were covalently immobilized through free amine groups to the carboxymethylated dextran matrix by applying the amine coupling kit according to the manufacturer protocol. A blank flow cell without immobilized protein was included as a reference surface on the chip for bulk shift and nonspecific binding changes.
(§2) Increasing concentrations of both ASF and fetuin ranging from 10,240 to 10 nM were prepared as a 2 fold serial dilution series in running buffer and sequentially injected across the chip surface at 25 μL/min in order to characterize protein-ligand interaction. […]
Kinetic data were analyzed using Biacore T200 Evaluation Software Version 1.0 (GE Healthcare Biosciences, Uppsala, Sweden). An interaction of the analyte with the ligand was detected by an increase in accumulating mass and specific binding was identified by subtracting the binding response recorded from the control surface, followed by subtracting an average of the buffer blank injections. A report point was positioned 20 seconds after the end of sample injection and was evaluated as representative for a stable protein-ligand interaction, which was of interest. […] Furthermore, the response was calculated relative to the baseline in each case. […]

rhASGPR [3] = target: T1, rhASGPR; experiment: SPR binding to immobilized clearance receptor rhASGPR; details: 25 °C, 5 mM CaCl2, pH 7.4, FIGS. 9 and 10
Procedure: SPR technology (Biacore T200, GE Healthcare Biosciences, Uppsala, Sweden) was applied to evaluate mechanisms of realtime biomolecular interactions between VWF, receptor-blocking agents and clearance receptor candidates. The interaction experiments were performed at a flow cell temperature of +25° C. by applying running buffer containing 10 mM HEPES, 150 mM NaCl, 5 mM CaCl2 and 0.05% Tween-20 at pH 7.4, which was also used as sample dilution buffer. Reagents and buffer stock solutions were purchased from GE Healthcare Biosciences (Uppsala, Sweden). The extracellular domains of receptor proteins were acquired from R&D Systems (Wiesbaden, Germany). […]
(§3) Kinetic data were analyzed using Biacore T200 Evaluation Software Version 1.0 (GE Healthcare Biosciences, Uppsala, Sweden). An interaction of the analyte with the ligand was detected by an increase in accumulating mass and specific binding was identified by subtracting the binding response recorded from the control surface, followed by subtracting an average of the buffer blank injections. A report point was positioned 20 seconds after the end of sample injection and was evaluated as representative for a stable protein-ligand interaction, which was of interest. […] Furthermore, the response was calculated relative to the baseline in each case.

rhSCARA5 = target: T2, rhSCARA5 (Homo sapiens, UniProt Q6ZMJ2); experiment: SPR binding to immobilized clearance receptor rhSCARA5; details: 25 °C, 5 mM CaCl2, pH 7.4, FIGS. 9 and 10
T2 construct: The extracellular domains of receptor proteins were acquired from R&D Systems (Wiesbaden, Germany); purchased R&D Systems (Wiesbaden, Germany)
Procedure: as §1, §2, §3

rhCOLEC12 = target: T3, rhCOLEC12 (Homo sapiens, UniProt Q5KU26); experiment: SPR binding to immobilized clearance receptor rhCOLEC12; details: 25 °C, 5 mM CaCl2, pH 7.4, FIGS. 9 and 10
T3 construct: The extracellular domains of receptor proteins were acquired from R&D Systems (Wiesbaden, Germany); purchased R&D Systems (Wiesbaden, Germany)
Procedure: as §1, §2, §3

rmCLEC4F = target: T4, rmCLEC4F (Mus musculus, UniProt P70194); experiment: SPR binding to immobilized clearance receptor rmCLEC4F; details: 25 °C, 5 mM CaCl2, pH 7.4, FIGS. 9 and 10
T4 construct: The extracellular domains of receptor proteins were acquired from R&D Systems (Wiesbaden, Germany); purchased R&D Systems (Wiesbaden, Germany)
T4 sequence (P70194 70-548 limits assumed): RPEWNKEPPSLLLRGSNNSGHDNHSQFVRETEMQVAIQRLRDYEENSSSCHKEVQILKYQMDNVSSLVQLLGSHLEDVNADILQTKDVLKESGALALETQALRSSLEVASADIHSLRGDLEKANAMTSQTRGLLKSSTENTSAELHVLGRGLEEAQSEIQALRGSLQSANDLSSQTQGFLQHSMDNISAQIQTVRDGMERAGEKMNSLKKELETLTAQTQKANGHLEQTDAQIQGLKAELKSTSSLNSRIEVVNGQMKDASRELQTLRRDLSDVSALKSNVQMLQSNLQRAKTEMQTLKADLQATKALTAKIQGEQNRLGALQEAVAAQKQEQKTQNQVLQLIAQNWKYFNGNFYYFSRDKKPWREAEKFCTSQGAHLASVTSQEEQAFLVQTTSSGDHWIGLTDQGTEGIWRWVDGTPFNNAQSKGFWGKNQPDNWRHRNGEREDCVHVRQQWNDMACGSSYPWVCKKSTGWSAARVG
Procedure: as §1, §2, §3

rhCLEC4M = target: T5, rhCLEC4M (Homo sapiens, UniProt Q9H2X3); experiment: SPR binding to immobilized clearance receptor rhCLEC4M; details: 25 °C, 5 mM CaCl2, pH 7.4, FIGS. 9 and 10
T5 construct: The extracellular domains of receptor proteins were acquired from R&D Systems (Wiesbaden, Germany); purchased R&D Systems (Wiesbaden, Germany)
T5 sequence (Q9H2X3 71-399 limits assumed): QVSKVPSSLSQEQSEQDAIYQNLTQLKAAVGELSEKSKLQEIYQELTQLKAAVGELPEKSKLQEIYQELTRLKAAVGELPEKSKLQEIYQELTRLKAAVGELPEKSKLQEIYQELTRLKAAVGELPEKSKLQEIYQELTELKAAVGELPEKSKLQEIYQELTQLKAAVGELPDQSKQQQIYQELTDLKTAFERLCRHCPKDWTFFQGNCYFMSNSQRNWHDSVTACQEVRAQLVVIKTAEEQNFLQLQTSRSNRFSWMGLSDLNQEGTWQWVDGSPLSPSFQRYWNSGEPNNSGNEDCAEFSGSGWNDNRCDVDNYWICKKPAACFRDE
Procedure: as §1, §2, §3

rhCLEC10A = target: T6, rhCLEC10A (Homo sapiens, UniProt Q8IUN9); experiment: SPR binding to immobilized clearance receptor rhCLEC10A; details: 25 °C, 5 mM CaCl2, pH 7.4, FIGS. 9 and 10
T6 construct: The extracellular domains of receptor proteins were acquired from R&D Systems (Wiesbaden, Germany); purchased R&D Systems (Wiesbaden, Germany)
T6 sequence (Q8IUN9 61-316 limits assumed): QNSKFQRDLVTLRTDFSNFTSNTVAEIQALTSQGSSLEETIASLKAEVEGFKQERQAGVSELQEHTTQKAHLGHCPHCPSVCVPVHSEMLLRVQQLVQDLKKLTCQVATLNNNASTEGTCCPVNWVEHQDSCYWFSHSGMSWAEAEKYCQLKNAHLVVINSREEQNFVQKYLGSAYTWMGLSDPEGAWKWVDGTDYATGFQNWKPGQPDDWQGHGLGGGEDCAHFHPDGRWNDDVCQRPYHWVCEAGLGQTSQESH
Procedure: as §1, §2, §3

rhASGPR [4] = target: T1, rhASGPR; experiment: Solid-phase binding assay of multimeric VWF with rhASGPR; details: VWF 100 to 3 μg/mL, 1 hour at +37 °C; FIG. 12
Source text: In addition to SPR-based interaction analysis with monomeric VWF, the interaction of multimeric VWF (purified from human plasma) with rhASGPR was investigated by using solid-phase binding assay. In addition, asialo-VWF (plasma derived VWF after treatment with α(2-3,6,8)-neuraminidase) was used as control.
Lyophilized rhASGPR (R&D Systems, Wiesbaden, Germany) was reconstituted and diluted in 0.05 M carbonate-bicarbonate buffer at pH 9.6, adsorbed onto high-adsorption 96-microwell plates at RT overnight, and subsequently washed with washing buffer (50 mM Tris, 150 mM NaCl, 5 mM CaCl2 and 0.1% (w/v) Tween-20 at pH 7.4). Afterwards, the wells were incubated for 1 hour with blocking solution (50 mM Tris, 150 mM NaCl, 5 mM CaCl2 and 2.5% (w/v) BSA at pH 7.4) in order to block non-specific binding, and then washed with washing buffer again. […] After washing the wells, associated VWF was subsequently detected by a commercial polyclonal rabbit anti-human VWF antibody conjugated with HRP (DakoCytomation, Glostrup, Denmark) that had been previously diluted 1:16,000 in dilution buffer. […] The reaction was stopped with stopping solution POD (Siemens Healthcare Diagnostics, Marburg, Germany) and the substrate reaction was photometrically monitored by measuring the difference in wave lengths at 450 nm and 620 nm.

T2 sequence (Q6ZMJ2 82-495 limits assumed): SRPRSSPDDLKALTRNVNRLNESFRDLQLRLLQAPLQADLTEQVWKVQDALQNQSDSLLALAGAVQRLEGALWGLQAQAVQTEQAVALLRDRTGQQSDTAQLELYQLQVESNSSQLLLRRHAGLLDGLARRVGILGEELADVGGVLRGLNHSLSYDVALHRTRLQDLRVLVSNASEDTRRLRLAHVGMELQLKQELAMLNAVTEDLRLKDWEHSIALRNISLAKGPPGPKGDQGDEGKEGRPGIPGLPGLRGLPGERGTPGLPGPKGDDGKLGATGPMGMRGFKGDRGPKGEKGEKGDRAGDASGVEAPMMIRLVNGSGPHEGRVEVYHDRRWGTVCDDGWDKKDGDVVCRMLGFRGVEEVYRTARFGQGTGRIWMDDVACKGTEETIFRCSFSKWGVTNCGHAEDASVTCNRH
T3 sequence (Q5KU26 59-742 limits assumed): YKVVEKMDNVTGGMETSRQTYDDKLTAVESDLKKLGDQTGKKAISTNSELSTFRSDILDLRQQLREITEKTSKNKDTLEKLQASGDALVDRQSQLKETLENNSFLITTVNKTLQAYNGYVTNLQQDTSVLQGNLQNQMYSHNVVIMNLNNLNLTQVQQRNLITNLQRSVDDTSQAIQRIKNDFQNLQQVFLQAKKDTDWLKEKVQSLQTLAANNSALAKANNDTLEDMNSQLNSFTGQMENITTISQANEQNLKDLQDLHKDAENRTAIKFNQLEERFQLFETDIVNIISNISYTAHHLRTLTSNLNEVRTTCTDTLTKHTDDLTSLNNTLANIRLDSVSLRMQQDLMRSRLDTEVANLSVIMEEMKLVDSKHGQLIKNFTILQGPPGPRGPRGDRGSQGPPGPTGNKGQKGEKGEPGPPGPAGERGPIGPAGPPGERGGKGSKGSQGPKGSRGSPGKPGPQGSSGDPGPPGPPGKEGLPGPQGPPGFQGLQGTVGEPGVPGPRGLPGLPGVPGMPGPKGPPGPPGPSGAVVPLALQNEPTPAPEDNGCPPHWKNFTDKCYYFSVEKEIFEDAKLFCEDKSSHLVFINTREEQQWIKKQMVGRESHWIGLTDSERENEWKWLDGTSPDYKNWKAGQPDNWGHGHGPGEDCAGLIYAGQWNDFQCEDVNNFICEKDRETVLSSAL

Compound	inhibition of interaction of pd VWF monomers with clearance receptors (clearance receptors)	inhibition of binding of pd VWF multimers to clearance receptor candidates [1]	inhibition of ASF binding to immobilized rhASGPR (rhASGPR [2])	SPR binding to rhSCARA5 (rhSCARA5)	SPR binding to rhCOLEC12 (rhCOLEC12)	SPR binding to rmCLEC4F (rmCLEC4F)	SPR binding to rhCLEC4M (rhCLEC4M)	SPR binding to rhCLEC10A (rhCLEC10A)	further results
VWF: purified VWF monomers (pd VWF after reduction with dithiothreitol and carboxymethylation with iodoacetamide)				bind efficiently	bind efficiently	bind efficiently	bind efficiently	bind efficiently	SPR binding to rhASGPR (rhASGPR [3]): bind efficiently
plasma derived VWF multimers: multimeric VWF purified from human plasma, native glycosylation structure without modifications									interaction with rhASGPR, solid-phase binding assay (rhASGPR [4]): interacted with rhASGPR; interaction of pd VWF multimers with clearance receptor candidates ([1]; according to Example 9): interact
asialo-VWF multimers: plasma derived VWF after treatment with α(2-3,6,8)-neuraminidase, used as control									interaction with rhASGPR, solid-phase binding assay (rhASGPR [4]): interacted with rhASGPR
fetuin [reference compound]				almost not	almost not	almost not	almost not	almost not	SPR binding to rhASGPR (rhASGPR [3]): almost not
CC(=O)N[C@H]1C(O)O[C@H](CO)[C@H](O)[C@@H]1O (stereo partly drawn) [GalNac, N-acetylgalactosamine]	inhibited	inhibited	decreased binding; also recorded: inhibited binding						
asialofetuin: bovine ASF (fetuin after the removal of terminal sialic acid residues), ligand blocking galactose receptors such as ASGPR		inhibited		bind efficiently	bind efficiently	bind efficiently	bind efficiently	bind efficiently	

Now from value to compound, other results behind:

inhibition of interaction of pd VWF monomers with clearance receptors (clearance receptors)	Compound	inhibition of binding of pd VWF multimers to clearance receptor candidates [1]	inhibition of ASF binding to immobilized rhASGPR (rhASGPR [2])	SPR binding to rhSCARA5 (rhSCARA5)	SPR binding to rhCOLEC12 (rhCOLEC12)	SPR binding to rmCLEC4F (rmCLEC4F)	SPR binding to rhCLEC4M (rhCLEC4M)	SPR binding to rhCLEC10A (rhCLEC10A)	further results
inhibited	O=C[C@H](O)[C@@H](O)[C@@H](O)[C@H](O)CO [Gal, galactose]	inhibited	decreased binding; also recorded: inhibited binding						
inhibited	C[C@H](O)[C@@H](O)[C@@H](O)[C@H](O)C=O [Fuc, fucose]	inhibited	decreased binding; also recorded: inhibited binding						
